From patent publication US20200282010A1, “IMMUNOGENIC COMPOSITIONS AND USES THEREFOR” (Epiaxis Therapeutics Pty Ltd, priority 2017, published 2020)

Tested on: CD8^+ T-cells isolated from melanoma patient's bloods
Experiment: Immunofluorescence of nuclear PKC-θ and ZEB1 in patient CD8+ T-cells
Type: cell-based, human
Conditions: all patient samples; vehicle or PMA/CI; inhibitor 8 μm; FIG. 3
Method: FIG. 3 is a photographic representation depicting a PKC-θ resistance signature in CD8^+ T-cells. A-B) CD8s were isolated from melanoma patient liquid biopsies (CR=complete response, SD=Stable Disease, PD=progression of disease) and were stimulated with PMA/CI and pre-clinically screened with either vehicle control or PKCθi nuclear peptide inhibitor. Samples were fixed and immunofluorescence microscopy was performed on these cells with primary antibodies for ZEB1, PKC-θ, and CD8. Representative images for each dataset are shown. Graph represents the TNFI for PKC-Theta and TNFI for ZEB1 measured using ImageJ to select the nucleus minus background (n=>20 cells/sample). Plot profiles for each cohort for ZEB1 and PKC-θ are also depicted (RED=ZEB1, Green=PKC-θ) with the PCC indicated. Graphs depicting the % inhibition or induction based on protein expression where also plotted for each protein target relative to untreated sample. C-D) CD8s were isolated from melanoma patient liquid biopsies (CR=complete response, PR=partial response, PD=progression of disease) and were stimulated with PMA/CI and pre-clinically screened with either vehicle control or our PKCθi nuclear peptide inhibitor. […] Graph represents the TNFI for TNF-α and TNFI for IFN-γ measured using ImageJ to select the nucleus minus background (n=>20 cells/sample). […]

RKEIDPPFRPKVK [PKCθi]
expression of ZEB1: strikingly abrogated | expression of nuclear PKC-θ: strikingly abrogated
